Results taken from US20240293362A1, “Soluble Epoxide Hydrolase Inhibitors and Use Thereof” (Board of Trustees of Michigan State University, priority 2021, published 2024).

Compared with `CCC(=O)NCC1CCN(C(=O)Nc2ccc(OC(F)(F)F)cc2)C1` (stereo not drawn) [Example 12, 3-(propanamidomethyl)-N-[4-(trifluoromethoxy)phenyl]pyrrolidine-1-carboxamide], `CCC(=O)N1CC[C@H](NC(=O)Nc2ccc(OC(F)(F)F)cc2)[C@@H](F)C1` [Example 47, 1-((3S,4S)-3-fluoro-1-propionylpiperidin-4-yl)-3-(4-(trifluoromethoxy)phenyl)urea] is higher in melting point: 166 to 167 °C for the first, 180 to 181 °C for the second.

First: CCC(=O)N1CC[C@H](NC(=O)Nc2ccc(OC(F)(F)F)cc2)C[C@H]1C [Example 48, 1-((2R,4S)-2-methyl-1-propionylpiperidin-4-yl)-3-(4-(trifluoromethoxy)phenyl)urea]
Second: CCC(=O)N1CC[C@H](NC(=O)Nc2ccc(OC(F)(F)F)cc2)[C@H](F)C1 [Example 46, 1-((3R,4S)-3-fluoro-1-propionylpiperidin-4-yl)-3-(4-(trifluoromethoxy)phenyl)urea]
The melting point of the first is lower: 175 to 176 °C for the first, 245 to 246 °C for the second.

First: CCC(=O)N1CC[C@@H](NC(=O)Nc2ccc(OC(F)(F)F)cc2)[C@@H](F)C1 [Example 45, 1-((3S,4R)-3-fluoro-1-propionylpiperidin-4-yl)-3-(4-(trifluoromethoxy)phenyl)urea]
Second: CCC(=O)N1CCC(NC(=O)Nc2ccc(OC(F)(F)F)cc2)C(F)(F)C1 (stereo not drawn) [Example 44, 1-(3,3-difluoro-1-propionylpiperidin-4-yl)-3-(4-(trifluoromethoxy)phenyl)urea]
The melting point of the first is higher: 231 to 232 °C for the first, 223 to 224 °C for the second.
